Assay results taken from ChEMBL document CHEMBL1201862, “PubChem BioAssay data set” (2004).
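48-hour exposure; five concentrations; linearly interpolated endpoints. At the GI50, growth is halved.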 Active and inactive are the calls of the source. Rule as the data show it: active = GI50 up to about 1.1 µM and inactive = higher.

Assays:
Test in all cases: DTP human tumour cell line panel, 48 h
786-0 = system: 786-0
A498 = system: A498
A549 = system: A549
ACHN = system: ACHN
BT-549 = system: BT-549
CAKI-1 = system: CAKI-1
CCRF-CEM = system: CCRF-CEM
COLO 205 = system: COLO 205
DU-145 = system: DU-145
EKVX = system: EKVX
HCC 2998 = system: HCC 2998
HCT-116 = system: HCT-116
HCT-15 = system: HCT-15
HL-60 = system: HL-60
HOP-62 = system: HOP-62
HOP-92 = system: HOP-92
HT-29 = system: HT-29
Hs-578T = system: Hs-578T
IGROV-1 = system: IGROV-1
K562 = system: K562
KM12 = system: KM12
M14 = system: M14
MCF7 = system: MCF7
MDA-MB-231 = system: MDA-MB-231
MDA-MB-435 = system: MDA-MB-435
MDA-N = system: MDA-N
MOLT-4 = system: MOLT-4
Malme-3M = system: Malme-3M
NCI-H226 = system: NCI-H226
NCI-H23 = system: NCI-H23
NCI-H460 = system: NCI-H460
NCI-H522 = system: NCI-H522
NCI/ADR-RES = system: NCI/ADR-RES
OVCAR-3 = system: OVCAR-3
OVCAR-4 = system: OVCAR-4
OVCAR-5 = system: OVCAR-5
OVCAR-8 = system: OVCAR-8
PC-3 = system: PC-3
RPMI-8226 = system: RPMI-8226
RXF 393 = system: RXF 393
SF-268 = system: SF-268
SF-295 = system: SF-295
SF-539 = system: SF-539
SK-MEL-28 = system: SK-MEL-28
SK-MEL-2 = system: SK-MEL-2
SK-MEL-5 = system: SK-MEL-5
SK-OV-3 = system: SK-OV-3
SN12C = system: SN12C
SNB-19 = system: SNB-19
SR = system: SR
T47D = system: T47D
TK-10 = system: TK-10
U-251 = system: U-251
UACC-257 = system: UACC-257
UACC-62 = system: UACC-62
UO-31 = system: UO-31
LOX IMVI = system: LOX IMVI
SNB-75 = system: SNB-75
SW-620 = system: SW-620

Cc1ccc(-c2cc(N)n(-c3nc4c([nH]3)c(=O)n(C)c(=O)n4C)n2)cc1
GI50 (786-0): 2.08 µM (inactive) | GI50 (A498): 4.86 µM (inactive) | GI50 (A549): 4.68 µM (inactive) | GI50 (ACHN): 1.92 µM (inactive) | GI50 (BT-549): 6.95 µM (inactive) | GI50 (CAKI-1): 0.778 µM (active) | GI50 (CCRF-CEM): 2.64 µM (inactive) | GI50 (COLO 205): 3.62 µM (inactive) | GI50 (DU-145): 6.35 µM (inactive) | GI50 (EKVX): 3.09 µM (inactive) | GI50 (HCC 2998): 7.67 µM (inactive) | GI50 (HCT-116): 2.69 µM (inactive) | GI50 (HCT-15): 0.47 µM | GI50 (HL-60): 5.04 µM (inactive) | GI50 (HOP-62): 3.28 µM (inactive) | GI50 (HOP-92): 12.8 µM (inactive) | GI50 (HT-29): 4.53 µM (inactive) | GI50 (Hs-578T): 23 µM (inactive) | GI50 (IGROV-1): 2.2 µM (inactive) | GI50 (K562): 4.03 µM (inactive) | GI50 (KM12): 4.88 µM (inactive) | GI50 (M14): 4.32 µM (inactive) | GI50 (MCF7): 6.78 µM (inactive) | GI50 (MDA-MB-231): 8.97 µM (inactive) | GI50 (MDA-MB-435): 7.73 µM (inactive) | GI50 (MDA-N): 5.98 µM (inactive) | GI50 (MOLT-4): 2.06 µM (inactive) | GI50 (Malme-3M): 3.86 µM (inactive) | GI50 (NCI-H226): 6.71 µM (inactive) | GI50 (NCI-H23): 8.95 µM (inactive) | GI50 (NCI-H460): 1.71 µM (inactive) | GI50 (NCI-H522): 29 µM (inactive) | GI50 (NCI/ADR-RES): 1.55 µM (inactive) | GI50 (OVCAR-3): 4.55 µM (inactive) | GI50 (OVCAR-4): 4.01 µM (inactive) | GI50 (OVCAR-5): 8.05 µM (inactive) | GI50 (OVCAR-8): 3.37 µM (inactive) | GI50 (PC-3): 16.3 µM (inactive) | GI50 (RPMI-8226): 6.81 µM (inactive) | GI50 (RXF 393): 17.6 µM (inactive) | GI50 (SF-268): 3.59 µM (inactive) | GI50 (SF-295): 2.69 µM (inactive) | GI50 (SF-539): 4.24 µM (inactive) | GI50 (SK-MEL-28): 6.14 µM (inactive) | GI50 (SK-MEL-2): 6.64 µM (inactive) | GI50 (SK-MEL-5): 3.36 µM (inactive) | GI50 (SK-OV-3): 3.3 µM (inactive) | GI50 (SN12C): 5.32 µM (inactive) | GI50 (SNB-19): 8.55 µM (inactive) | GI50 (SR): 2.43 µM (inactive) | GI50 (T47D): 4.76 µM (inactive) | GI50 (TK-10): 9.84 µM (inactive) | GI50 (U-251): 5.36 µM (inactive) | GI50 (UACC-257): 15.3 µM (inactive) | GI50 (UACC-62): 5.37 µM (inactive) | GI50 (UO-31): 2.78 µM (inactive)

CC1=C(/C=C/Cl)CC(Cl)C(C)(Cl)C1 (centres undefined)
GI50 (786-0): > 100 µM (inactive) | GI50 (A498): > 100 µM (inactive) | GI50 (A549): > 100 µM (inactive) | GI50 (ACHN): > 100 µM (inactive) | GI50 (BT-549): > 100 µM (inactive) | GI50 (CAKI-1): > 100 µM (inactive) | GI50 (CCRF-CEM): 19.6 µM (inactive) | GI50 (COLO 205): > 100 µM (inactive) | GI50 (DU-145): > 100 µM (inactive) | GI50 (EKVX): > 100 µM (inactive) | GI50 (HCC 2998): > 100 µM (inactive) | GI50 (HCT-116): > 100 µM (inactive) | GI50 (HCT-15): > 100 µM | GI50 (HL-60): 20.4 µM (inactive) | GI50 (HOP-92): 53 µM (inactive) | GI50 (HT-29): 55.8 µM (inactive) | GI50 (Hs-578T): > 100 µM (inactive) | GI50 (IGROV-1): > 100 µM (inactive) | GI50 (K562): > 100 µM (inactive) | GI50 (KM12): > 100 µM (inactive) | GI50 (LOX IMVI): > 100 µM (inactive) | GI50 (M14): > 100 µM (inactive) | GI50 (MCF7): 40 µM (inactive) | GI50 (MDA-MB-231): > 100 µM (inactive) | GI50 (MDA-MB-435): > 100 µM (inactive) | GI50 (MDA-N): > 100 µM (inactive) | GI50 (MOLT-4): 63.5 µM (inactive) | GI50 (Malme-3M): > 100 µM (inactive) | GI50 (NCI-H226): > 100 µM (inactive) | GI50 (NCI-H23): > 100 µM (inactive) | GI50 (NCI-H460): > 100 µM (inactive) | GI50 (NCI-H522): 91.2 µM (inactive) | GI50 (NCI/ADR-RES): > 100 µM (inactive) | GI50 (OVCAR-4): 83.8 µM (inactive) | GI50 (OVCAR-5): > 100 µM (inactive) | GI50 (OVCAR-8): > 100 µM (inactive) | GI50 (PC-3): > 100 µM (inactive) | GI50 (RXF 393): 10.6 µM (inactive) | GI50 (SF-268): > 100 µM (inactive) | GI50 (SF-295): > 100 µM (inactive) | GI50 (SF-539): > 100 µM (inactive) | GI50 (SK-MEL-28): > 100 µM (inactive) | GI50 (SK-MEL-2): > 100 µM (inactive) | GI50 (SK-MEL-5): > 100 µM (inactive) | GI50 (SK-OV-3): > 100 µM (inactive) | GI50 (SN12C): > 100 µM (inactive) | GI50 (SNB-19): > 100 µM (inactive) | GI50 (SNB-75): > 100 µM (inactive) | GI50 (SR): > 100 µM (inactive) | GI50 (SW-620): > 100 µM (inactive) | GI50 (T47D): > 100 µM (inactive) | GI50 (TK-10): > 100 µM (inactive) | GI50 (U-251): > 100 µM (inactive) | GI50 (UACC-257): > 100 µM (inactive) | GI50 (UACC-62): > 100 µM (inactive) | GI50 (UO-31): > 100 µM (inactive)

CC(=O)c1cccc(Nc2c3ccccc3nc3occc23)c1
GI50 (786-0): 4.08 µM (inactive) | GI50 (A498): 31.4 µM (inactive) | GI50 (A549): 16.5 µM (inactive) | GI50 (ACHN): 9.73 µM (inactive) | GI50 (BT-549): 12.3 µM (inactive) | GI50 (CAKI-1): 2.48 µM (inactive) | GI50 (CCRF-CEM): 3.3 µM (inactive) | GI50 (COLO 205): 11.7 µM (inactive) | GI50 (DU-145): 11 µM (inactive) | GI50 (EKVX): 25.6 µM (inactive) | GI50 (HCC 2998): 5.21 µM (inactive) | GI50 (HCT-116): 3.5 µM (inactive) | GI50 (HCT-15): 3.99 µM | GI50 (HL-60): 3.48 µM (inactive) | GI50 (HOP-62): 3.61 µM (inactive) | GI50 (HOP-92): 11.5 µM (inactive) | GI50 (HT-29): 1.51 µM (inactive) | GI50 (Hs-578T): 5.15 µM (inactive) | GI50 (IGROV-1): 2.54 µM (inactive) | GI50 (K562): 3.26 µM (inactive) | GI50 (KM12): 4.73 µM (inactive) | GI50 (LOX IMVI): 5.04 µM (inactive) | GI50 (M14): 4.3 µM (inactive) | GI50 (MCF7): 3.94 µM (inactive) | GI50 (MDA-MB-231): 9.93 µM (inactive) | GI50 (MDA-MB-435): 1.07 µM (active) | GI50 (MDA-N): 2.58 µM (inactive) | GI50 (MOLT-4): 5.27 µM (inactive) | GI50 (Malme-3M): 4.9 µM (inactive) | GI50 (NCI-H226): 10.8 µM (inactive) | GI50 (NCI-H23): 3.01 µM (inactive) | GI50 (NCI-H460): 22.8 µM (inactive) | GI50 (NCI-H522): 1.54 µM (inactive) | GI50 (NCI/ADR-RES): 2.51 µM (inactive) | GI50 (OVCAR-3): 1.82 µM (inactive) | GI50 (OVCAR-4): 0.438 µM (active) | GI50 (OVCAR-5): 37.2 µM (inactive) | GI50 (OVCAR-8): 15.3 µM (inactive) | GI50 (PC-3): 13 µM (inactive) | GI50 (RPMI-8226): 3.34 µM (inactive) | GI50 (RXF 393): 0.09 µM (active) | GI50 (SF-268): 16.1 µM (inactive) | GI50 (SF-295): 3.83 µM (inactive) | GI50 (SF-539): 2.16 µM (inactive) | GI50 (SK-MEL-28): 2.67 µM (inactive) | GI50 (SK-MEL-2): 2.74 µM (inactive) | GI50 (SK-MEL-5): 8.75 µM (inactive) | GI50 (SK-OV-3): 10.6 µM (inactive) | GI50 (SN12C): 8.38 µM (inactive) | GI50 (SNB-19): 10.9 µM (inactive) | GI50 (SR): 0.705 µM (active) | GI50 (T47D): 5.14 µM (inactive) | GI50 (TK-10): 16.2 µM (inactive) | GI50 (U-251): 5.16 µM (inactive) | GI50 (UACC-257): 11.3 µM (inactive) | GI50 (UACC-62): 9.04 µM (inactive) | GI50 (UO-31): 12.5 µM (inactive)
